In the NIST ThermoML archive (doi:10.1021/acs.jced.8b00372):

Test: mn = molality of the nth substance listed, in mol/kg
Settings: for electrical conductivity: 100 kPa, Liquid, Frequency=0.002 MHz, Alternating current cell with electrodes; for surface tension liquid-gas: Ring tensiometer

CCCCCCCCCCCCCCCC[n+]1ccn(C)c1.[Cl-] [1-hexadecyl-3-methylimidazolium chloride] + O
Settings | electrical conductivity, 303.15 K [S/m] | electrical conductivity, 313.15 K [S/m] | electrical conductivity, 323.15 K [S/m] | surface tension liquid-gas, 313.15 K [mN/m]
m1 = 1.3e-05 | – | – | – | 57.9
m1 = 4.4e-05 | – | – | – | 56.4
m1 = 0.00011 | 0.00121 | 0.00152 | 0.00171 | –
m1 = 0.000146 | – | – | – | 53.2
m1 = 0.00022 | 0.00234 | 0.00295 | 0.00334 | –
m1 = 0.000247 | – | – | – | 50.1
m1 = 0.00033 | 0.00341 | 0.00432 | 0.00491 | –
m1 = 0.00043 | 0.00444 | 0.0056 | 0.0064 | –
m1 = 0.000435 | – | – | – | 46.4
m1 = 0.00052 | 0.00541 | 0.00686 | 0.00791 | –
m1 = 0.00062 | 0.00636 | 0.00803 | 0.00929 | –
m1 = 0.00071 | 0.00726 | 0.00918 | 0.0106 | –
m1 = 0.000734 | – | – | – | 39.2
m1 = 0.00079 | 0.00809 | 0.0102 | 0.0119 | –
m1 = 0.00088 | 0.0088 | 0.0112 | 0.0133 | –
m1 = 0.00096 | 0.00933 | 0.0119 | 0.0143 | –
m1 = 0.00104 | 0.00977 | 0.0125 | 0.0153 | –
m1 = 0.00112 | 0.0102 | 0.0131 | 0.0161 | –
m1 = 0.00119 | 0.0106 | 0.0136 | 0.0168 | –
m1 = 0.00126 | 0.0109 | 0.0141 | 0.0175 | –
m1 = 0.00127 | – | – | – | 38.8
m1 = 0.00133 | 0.0112 | 0.0145 | 0.0181 | –
m1 = 0.00139 | 0.0115 | 0.0149 | 0.0186 | –
m1 = 0.00146 | 0.0118 | 0.0154 | 0.0192 | –
m1 = 0.00153 | 0.0121 | 0.0157 | 0.0197 | –
m1 = 0.002558 | – | – | – | 38.8
m1 = 0.00525 | – | – | – | 38.1
